Source: US20240343727A1, “PYRIDAZINONE OR PYRIDINONE COMPOUNDS, PREPARATION METHODS AND USES THEREOF” (InventisBio Co., Ltd., priority 2021, published 2024)

Target: T1, PARP7 (Homo sapiens, UniProt Q7Z3E1)
T1 sequence (Q7Z3E1 1-657): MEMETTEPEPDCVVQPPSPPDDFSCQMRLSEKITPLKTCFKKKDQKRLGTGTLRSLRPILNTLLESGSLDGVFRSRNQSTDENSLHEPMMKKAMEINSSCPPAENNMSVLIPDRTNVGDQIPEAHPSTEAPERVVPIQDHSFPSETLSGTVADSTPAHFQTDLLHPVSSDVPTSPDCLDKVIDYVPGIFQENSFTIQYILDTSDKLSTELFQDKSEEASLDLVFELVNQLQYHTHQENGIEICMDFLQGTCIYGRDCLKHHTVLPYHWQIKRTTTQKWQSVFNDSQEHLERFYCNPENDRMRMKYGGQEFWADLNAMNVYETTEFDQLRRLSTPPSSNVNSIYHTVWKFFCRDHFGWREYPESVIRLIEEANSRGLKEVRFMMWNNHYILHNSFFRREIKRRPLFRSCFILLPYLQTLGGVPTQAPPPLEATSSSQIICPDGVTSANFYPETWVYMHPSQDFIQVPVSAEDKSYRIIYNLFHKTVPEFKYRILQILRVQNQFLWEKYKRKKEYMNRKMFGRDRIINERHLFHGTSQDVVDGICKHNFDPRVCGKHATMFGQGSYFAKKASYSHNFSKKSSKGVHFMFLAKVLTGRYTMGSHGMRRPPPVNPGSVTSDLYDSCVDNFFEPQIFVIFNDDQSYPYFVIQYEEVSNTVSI
Assay: PARP7 TR-FRET assay (binding, displacement of biotinylated Probe A)
Settings: 6 nM PARP7, 2 nM Probe A, 25° C., 30 min
Protocol: Biological Assay Example A: PARP7 TR-FRET Assay
A time-resolved fluorescence energy transfer (TR-FRET) assay was used to test binding activity of compounds to PARP7. Two microliter test compound was added in 384-well plate. Reactions were performed in a 6 uL volume by adding 4 uL mixture of PARP7 and Probe A (a biotinylated probe binding to the PARP7: N-(6-(2-(4-((2-(6-oxo-5-(trifluoromethyl)-1,6-dihydropyridazin-4-yl) isoindolin-5-yl) oxy) piperidin-1-yl) acetamido) hexyl)-5-((3aS,4S,6aR)-2-oxohexahydro-1H-thieno [3,4-d]imidazol-4-yl) pentanamide, made as reported in WO2019212937A1) in assay buffer (20 mM HEPES pH 8.0, 100 mM NaCl, 0.1% BSA, 2 mM DTT and 0.002% Tween20). The final concentration of PARP7 and Probe A were 6 nM and 2 nM, incubating with test compounds at 25° C. for 30 min. Four microliter ULight-anti 6xHis and LANCE Eu-W1024 labeled streptavidin (PerkinElmer) were added with the final concentration of ULight-anti 6xHis and LANCE Eu-W1024 at 4 nM and 0.25 nM. The reaction mixture was incubated at 25° C. for 30 min. The plate was read on a Tecan Spark plate reader (excitation wavelength at 320 nm, emission wavelength at 615 nm and 665 nm with a 90 us delay. The ratio of the 665/615 nm emission was calculated for each well to the amount of complex of PARP7 and Probe A in each well was calculated. The 0.25% DMSO vehicle was used as control and no PARP7 well was as blank well. Inhibition rate is calculated with the formula of % inhibition=100-100*(TRFcmpd-TRFblank)/(TRFcontrol−TRFblank). Inhibition IC50 is calculated with the equation of Y=Bottom+ (Top-Bottom)/(1+10^((LogIC50−X) *Hill Slope))

Row | Structure (SMILES) | IC50 [nM]
1 | O=C(OC1CN(c2cc(C(F)(F)F)c(=O)[nH]n2)CCC1(F)F)N1CCN(c2ncc(C(F)(F)F)cn2)CC1 (single isomer, unassigned) [Compound 117] | > 1000
2 | O=C(CC1CN(c2cc(C(F)(F)F)c(=O)[nH]n2)c2cc(Cl)ccc2O1)N1CCN(c2cnc(C(F)(F)F)cn2)CC1 (single isomer, unassigned) [Compound 143] | < 100
3 | C[C@@H]1CN(C(=O)c2cccc(Oc3n[nH]c(=O)c(C(F)(F)F)c3N3CC4(C3)CC(F)(F)C4)c2)CCN1c1ncc(C#N)cn1 [Compound 341] | < 100
4 | N#Cc1ccc(N2CCN(C(=O)CC3CN(c4cc(C(F)(F)F)c(=O)[nH]n4)c4cc(C(F)F)ccc4O3)CC2)nc1 (single isomer, unassigned) [Compound 328] | < 100
5 | O=C(CC1CN(c2cc(C(F)(F)F)c(=O)[nH]n2)c2ccccc2O1)N1CCN(c2ccc(C3CC3)cn2)CC1 (single isomer, unassigned) [Compound 286] | > 1000
6 | O=C(c1cccc(Oc2n[nH]c(=O)c(C(F)(F)F)c2N2CC3(CCC3)C2)c1)N1CCN(c2ncc(C3CC3)cn2)CC1 [Compound 226] | < 100
7 | C[C@@H]1CN(C(=O)c2cc(Oc3n[nH]c(=O)c(C(F)(F)F)c3N3CC4(CCC4)C3)ccn2)CCN1c1ncc(C(F)(F)F)cn1 [Compound 352] | < 100
8 | O=C(c1cncc(Oc2n[nH]c(=O)c(C(F)(F)F)c2N2CC3(C2)CC(F)(F)C3)c1)N1CCN(c2ncc(C3CC3)cn2)CC1 [Compound 313] | < 100
9 | O=C(c1cccc(Oc2n[nH]c(=O)c(C(F)(F)F)c2N2CC3(CCCO3)C2)c1)N1CCN(c2ncc(C(F)(F)F)cn2)CC1 [Compound 162] | < 100
10 | O=C(CC1CN(c2cc(C(F)(F)F)c(=O)[nH]n2)c2ccccc2O1)N1CCN(c2ccc(C3CC3)cn2)CC1 (single isomer, unassigned) [Compound 285] | < 100
11 | COCCNc1c(Oc2cccc(C(=O)N3CCN(c4ncc(C(F)(F)F)cn4)CC3)c2)n[nH]c(=O)c1C(F)(F)F [Compound 169] | < 100
12 | C#Cc1cnc(N2CCN(C(=O)c3cccc(Oc4n[nH]c(=O)c(C(F)(F)F)c4N4CC5(CCCO5)C4)c3)CC2)nc1 [Compound 275] | < 100
13 | CO[C@H]1C[C@@H](Nc2c(Oc3cccc(C(=O)N4CCN(c5ncc(C(F)(F)F)cn5)CC4)c3)n[nH]c(=O)c2C(F)(F)F)C1 [Compound 191] | < 100
14 | O=C(COC1CCOc2c1n[nH]c(=O)c2C(F)F)N1CCN(c2ncc(C(F)(F)F)cn2)CC1 (single isomer, unassigned) [Compound 55] | < 100
15 | CN1CC[C@@H](OCC(=O)N2CCN(c3ncc(C(F)(F)F)cn3)CC2)c2n[nH]c(=O)c(C(F)(F)F)c21 (single isomer, unassigned) [Compound 4] | < 100
16 | Cc1c(Oc2cc(Cl)cc(C(=O)N3CCN(c4ncc(C(F)(F)F)cn4)CC3)c2)n[nH]c(=O)c1C(F)(F)F [Compound 22] | 100 to 1000
17 | O=C(c1cccc(Oc2n[nH]c(=O)c(C(F)(F)F)c2C#CC2CC2)c1)N1CCN(c2ncc(C(F)(F)F)cn2)CC1 [Compound 139] | 100 to 1000
18 | N#Cc1ccc(N2CCN(C(=O)c3cccc(Oc4n[nH]c(=O)c(C(F)(F)F)c4N4CC5(C4)CC(F)(F)C5)c3)CC2)nc1 [Compound 333] | < 100
19 | O=C(OC1CN(c2cc(C(F)(F)F)c(=O)[nH]n2)CCC1(F)F)N1CCN(c2ncc(C(F)(F)F)cn2)CC1 (single isomer, unassigned) [Compound 81] | < 100
20 | CN(C)c1c(Oc2cccc(C(=O)N3CCN(c4ncc(C(F)(F)F)cn4)CC3)c2)n[nH]c(=O)c1C(F)(F)F [Compound 83] | < 100
21 | N#Cc1ccc(N2CCN(C(=O)CC3CN(c4cc(C(F)(F)F)c(=O)[nH]n4)c4ccccc4O3)CC2)nc1 (single isomer, unassigned) [Compound 222] | 100 to 1000
22 | O=C(c1cc(Oc2n[nH]c(=O)c(C(F)(F)F)c2N2CC3(C2)CC(F)(F)C3)ccn1)N1CCN(c2ncc(C(F)(F)F)cn2)CC1 [Compound 304] | < 100
23 | C[C@@H]1CN(C(=O)c2cc(Oc3n[nH]c(=O)c(C(F)(F)F)c3N3CC(O)C3)ccn2)CCN1c1ncc(C(F)(F)F)cn1 [Compound 340] | < 100
24 | C[C@@H]1CN(C(=O)CC2CN(c3cc(C(F)(F)F)c(=O)[nH]n3)c3cc(Cl)ccc3O2)CCN1c1ncc(C#N)cn1 (single isomer, unassigned) [Compound 330] | 100 to 1000
25 | N#CC1(c2ccnc(N3CCN(C(=O)CC4CN(c5cc(C(F)(F)F)c(=O)[nH]n5)c5cc(Cl)ccc5O4)CC3)n2)CC1 (stereo not drawn) [Compound 150] | < 100

Now from value to compound:

Row | IC50 [nM] | Structure (SMILES)
26 | 100 to 1000 | N#Cc1ccc2c(N3CCOC(CC(=O)N4CCN(c5ncc(C(F)(F)F)cn5)CC4)C3)n[nH]c(=O)c2c1 (stereo not drawn) [Compound 243]
27 | < 100 | CS(=O)(=O)c1ccc2c(c1)N(c1cc(C(F)(F)F)c(=O)[nH]n1)CC(CC(=O)N1CCN(c3ncc(C(F)(F)F)cn3)CC1)O2 (single isomer, unassigned) [Compound 205]
28 | < 100 | N#Cc1ccc2c(=O)[nH]nc(N3CCOC(CC(=O)N4CCN(c5ncc(C(F)(F)F)cn5)CC4)C3)c2c1 (single isomer, unassigned) [Compound 245]
29 | < 100 | Cc1ccc2c(=O)[nH]nc(N3CCOC(CC(=O)N4CCN(c5ncc(C(F)(F)F)cn5)CC4)C3)c2c1 (single isomer, unassigned) [Compound 102]
30 | < 100 | CC(C)(O)c1cnc(N2CCN(C(=O)CC3CN(c4cc(C(F)(F)F)c(=O)[nH]n4)c4cc(F)ccc4O3)CC2)nc1 (single isomer, unassigned) [Compound 351]
31 | < 100 | CNC(=O)c1ccc2c(c1)N(c1cc(C(F)(F)F)c(=O)[nH]n1)CC(CC(=O)N1CCN(c3ncc(C(F)(F)F)cn3)CC1)O2 (single isomer, unassigned) [Compound 323]
32 | > 1000 | O=C(CC1CN(c2n[nH]c(=O)c3cccnc23)CCO1)N1CCN(c2ncc(C(F)(F)F)cn2)CC1 (single isomer, unassigned) [Compound 124]
33 | < 100 | N#Cc1ccc2c(c1)N(c1cc(C(F)(F)F)c(=O)[nH]n1)CC(CC(=O)N1CCN(c3ccc(C(F)(F)F)cn3)CC1)O2 (single isomer, unassigned) [Compound 154]
34 | 100 to 1000 | N#Cc1cnc(N2CCN(C(=O)CC3CN(c4cc(C(F)(F)F)c(=O)[nH]n4)c4ccccc4O3)CC2)nc1 (single isomer, unassigned) [Compound 251]
35 | < 100 | O=C(COC1CCOc2c1n[nH]c(=O)c2C1CC1)N1CCN(c2ncc(C(F)(F)F)cn2)CC1 (single isomer, unassigned) [Compound 128]
36 | 100 to 1000 | O=C(CC1CN(c2cc(C(F)(F)F)c(=O)[nH]n2)c2ccccc2O1)N1CCN(c2ncc(C(F)F)cn2)CC1 (single isomer, unassigned) [Compound 249]
37 | 100 to 1000 | N#Cc1ccc2c(c1)N(c1cc(C(F)(F)F)c(=O)[nH]n1)CC(CC(=O)N1CCN(c3ncc(C(F)(F)F)cn3)CC1)O2 (single isomer, unassigned) [Compound 201]
38 | < 100 | Cn1ccc(-c2ccc3c(=O)[nH]nc(N4CCOC(CC(=O)N5CCN(c6ncc(C(F)(F)F)cn6)CC5)C4)c3c2)n1 (single isomer, unassigned) [Compound 259]
39 | < 100 | O=C(CC1CN(c2n[nH]c(=O)c3cc(Cl)ccc23)CCO1)N1CCN(c2ncc(C(F)(F)F)cn2)CC1 (single isomer, unassigned) [Compound 99]
40 | < 100 | O=C(CC1CN(c2cc(C(F)(F)F)c(=O)[nH]n2)c2ccc(Cl)cc2O1)N1CCN(c2ncc(C(F)(F)F)cn2)CC1 (single isomer, unassigned) [Compound 163]
41 | 100 to 1000 | C#Cc1cc(N2CCOC(CC(=O)N3CCN(c4ncc(C(F)(F)F)cn4)CC3)C2)n[nH]c1=O (single isomer, unassigned) [Compound 44]
42 | 100 to 1000 | CN1C[C@H](OCC(=O)N2CCN(c3ncc(C(F)(F)F)cn3)CC2)c2n[nH]c(=O)c3cc(F)cc1c23 (single isomer, unassigned) [Compound 13]
